Experiments:
[1] = system: corn; experiment: Test B pre-/postemergence herbicide test; assay type: in vivo, Zea mays
Outline: (§1)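 Greenhouse pot assay with simultaneous preemergence (treated seed) and postemergence (2–18 cm seedlings) applications of surfactant-containing, non-phytotoxic solvent formulations. Response scored visually 13–15 days later on a 0–100 scale, 100 meaning complete control.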

[2] = system: Surinam grass; experiment: Test B pre-/postemergence herbicide test; assay type: in vivo, Urochloa decumbens
Outline: as §1

[3] = system: barnyardgrass; experiment: Test B flooded paddy test; assay type: in vivo, Echinochloa crus-galli; conditions: 1000 g ai/ha, scale 0 to 100 (0 no effect, 100 complete control)
Outline: (§2)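 Each value is a visual 0–100 response rating taken against controls 13 to 15 days after treatment in the greenhouse. Plants received formulated chemical postemergence at the 1- to 4-leaf stage or, in flooded paddy, at the 2-leaf stage.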

[4] = system: rice; experiment: Test B flooded paddy test; assay type: in vivo, Oryza sativa; conditions: 1000 g ai/ha, scale 0 to 100 (0 no effect, 100 complete control)
Outline: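 Greenhouse test; postemergence application to plants at 1–4 leaves (2–18 cm); paddy species at 2 leaves; evaluated visually vs controls at 13–15 days; scale 0–100 (100 = complete control).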

[5] = system: large crabgrass; experiment: Test B pre-/postemergence herbicide test; assay type: in vivo, Digitaria sanguinalis
Outline: as §1

[6] = system: giant foxtail; experiment: Test B pre-/postemergence herbicide test; assay type: in vivo, Setaria faberi
Outline: as §1

[7] = system: lambsquarters; experiment: Test B pre-/postemergence herbicide test; assay type: in vivo, Chenopodium album
Outline: as §1

[8] = system: ducksalad; experiment: Test B flooded paddy test; assay type: in vivo, Heteranthera limosa; conditions: 1000 g ai/ha, scale 0 to 100 (0 no effect, 100 complete control)
Outline: as §2

[9] = system: velvetleaf; experiment: Test B pre-/postemergence herbicide test; assay type: in vivo, Abutilon theophrasti
Outline: as §1

[10] = system: wild oat; experiment: Test B postemergence herbicide test; assay type: in vivo, Avena fatua; conditions: for Plant response rating, Oat, Wild: visual rating after 13 to 15 days
Outline: as §2

[11] = system: pigweed; experiment: Test B pre-/postemergence herbicide test; assay type: in vivo, Amaranthus retroflexus
Outline: as §1

[12] = system: morningglory; experiment: Test B pre-/postemergence herbicide test; assay type: in vivo, Ipomoea coccinea
Outline: (§3)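 Evaluation is visual, comparing treated with control plants on a scale where 0 means no effect and 100 means full control. Treatments were preemergence, or postemergence on seedlings 2–18 cm tall, and held 13–15 days in the greenhouse.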

[13] = system: wheat; experiment: Test B postemergence herbicide test; assay type: in vivo, Triticum aestivum; set-up: key to Wheat plant response rating: 0 = no effect, 100 = complete control
Outline: as §2

[14] = system: cocklebur; experiment: Test B pre-/postemergence herbicide test; assay type: in vivo, Xanthium strumarium
Outline: as §3

[15] = system: barnyardgrass; experiment: Test B pre-/postemergence herbicide test; assay type: in vivo, Echinochloa crus-galli
Outline: as §3

[16] = 125 g ai/ha, 0 = no effect, 100 = complete control, preemergence
[17] = 125 g ai/ha, visual rating, scale 0 (no effect) to 100 (complete control), postemergence
[18] = 500 g ai/ha, visual rating, 0 = no effect, 100 = complete control, preemergence
[19] = postemergence, 500 g ai/ha, scale 0 to 100, 0 is no effect, 100 is complete control
[20] = Postemergence, 125 g ai/ha, scale 0 (no effect) to 100 (complete control)
[21] = Postemergence, 500 g ai/ha, visual rating after 13 to 15 days, scale 0 (no effect) to 100 (complete control)
[22] = Preemergence, 500 g ai/ha, scale 0 to 100
[23] = preemergence, 125 g ai/ha, 0 to 100 scale, 0 is no effect, 100 is complete control
[24] = Postemergence, 500 g ai/ha, scale 0 (no effect) to 100 (complete control)
[25] = Postemergence, 500 g ai/ha; visual rating after 13 to 15 days, scale 0 (no effect) to 100 (complete control)
[26] = postemergence, 125 g ai/ha, visual rating, scale 0 (no effect) to 100 (complete control)

CCn1nc(C(C)(C)C)cc1C(=O)Nc1ccc(OC)c(OC)c1 [Compound 298]
Corn plant response rating (0 to 100 scale) [1, 16]: 30
Corn plant response rating [1, 17]: 0
Plant response rating, Corn [1, 18]: 70
Corn plant response rating [1, 19]: 10
Surinam Grass plant response rating (0 to 100 scale) [2, 16]: 80
Surinam Grass plant response rating [2, 17]: 20
Plant response rating, Surinam Grass [2, 18]: 100
Surinam Grass plant response rating [2, 19]: 50
Barnyardgrass plant response rating [3]: 90
Rice plant response rating [4]: 80
Crabgrass, Large plant response rating (0 to 100 scale) [5, 16]: 100
Crabgrass, Large plant response rating [5, 17]: 20
Plant response rating, Crabgrass, Large [5, 18]: 100
Crabgrass, Large plant response rating [5, 19]: 70
Foxtail, Giant plant response rating (0 to 100 scale) [6, 16]: 80
Foxtail, Giant plant response rating [6, 17]: 10
Plant response rating, Foxtail, Giant [6, 18]: 100
Foxtail, Giant plant response rating [6, 19]: 50
Lambsquarters plant response rating (0 to 100 scale) [7, 16]: 100
Lambsquarters plant response rating [7, 17]: 40
Plant response rating, Lambsquarters [7, 18]: 100
Lambsquarters plant response rating [7, 19]: 90
Ducksalad plant response rating [8]: 90
Velvetleaf plant response rating [9, 17]: 60
Plant response rating, Velvetleaf [9, 18]: 60
Velvetleaf plant response rating [9, 19]: 60
Oat, Wild plant response rating [10, 17]: 30
Oat, Wild plant response rating [10, 19]: 40
Pigweed plant response rating (0 to 100 scale) [11, 16]: 100
Pigweed plant response rating [11, 17]: 80
Plant response rating, Pigweed [11, 18]: 100
Pigweed plant response rating [11, 19]: 90
Morningglory plant response rating (0 to 100 scale) [12, 16]: 10
Morningglory plant response rating [12, 17]: 60
Plant response rating, Morningglory [12, 18]: 40
Morningglory plant response rating [12, 19]: 70
Wheat plant response rating ([13]; 125 g ai/ha; visual rating, scale 0 (no effect) to 100 (complete control); postemergence): 20
Wheat plant response rating ([13]; postemergence, 500 g ai/ha; scale 0 to 100, 0 is no effect, 100 is complete control): 30
Cocklebur plant response rating (0 to 100 scale) [14, 16]: 0
Cocklebur plant response rating [14, 17]: 20
Plant response rating, Cocklebur [14, 18]: 0
Cocklebur plant response rating [14, 19]: 50
Barnyardgrass plant response rating (0 to 100 scale) [15, 16]: 70
Barnyardgrass plant response rating [15, 17]: 10
Plant response rating, Barnyardgrass [15, 18]: 90
Barnyardgrass plant response rating [15, 19]: 50

CCNC(=O)c1cccc(NC(=O)c2cc(C(C)(C)C)nn2CC(F)(F)F)c1 [Compound 31]
Corn plant response rating [1, 20]: 30
Plant response rating, Corn [1, 21]: 30
Corn plant response rating [1, 22]: 20
Plant response rating, Surinam Grass [2, 21]: 60
Surinam Grass plant response rating [2, 22]: 60
Plant response rating, Surinam Grass [2, 23]: 30
Barnyardgrass plant response rating ([3]; visual rating, 13 to 15 days): 80
Rice plant response rating ([4]; visual rating, 13 to 15 days): 80
Crabgrass, Large plant response rating [5, 20]: 20
Plant response rating, Crabgrass, Large [5, 21]: 30
Crabgrass, Large plant response rating [5, 22]: 50
Foxtail, Giant plant response rating [6, 20]: 20
Plant response rating, Foxtail, Giant [6, 21]: 30
Foxtail, Giant plant response rating [6, 22]: 90
Plant response rating, Foxtail, Giant [6, 23]: 60
Lambsquarters plant response rating [7, 20]: 90
Plant response rating, Lambsquarters [7, 21]: 90
Lambsquarters plant response rating [7, 22]: 100
Plant response rating, Lambsquarters [7, 23]: 90
Ducksalad plant response rating ([8]; visual rating, 13 to 15 days): 80
Plant response rating, Velvetleaf [9, 21]: 50
Velvetleaf plant response rating [9, 22]: 90
Plant response rating, Velvetleaf [9, 23]: 80
Oat, Wild plant response rating [10, 20]: 20
Plant response rating, Oat, Wild [10, 24]: 30
Plant response rating, Pigweed [11, 21]: 90
Pigweed plant response rating [11, 22]: 100
Plant response rating, Pigweed [11, 23]: 70
Morningglory plant response rating [12, 20]: 30
Plant response rating, Morningglory [12, 21]: 70
Morningglory plant response rating [12, 22]: 80
Plant response rating, Wheat [13, 25]: 10
Cocklebur plant response rating [14, 20]: 80
Plant response rating, Cocklebur [14, 21]: 90
Cocklebur plant response rating [14, 22]: 40
Barnyardgrass plant response rating [15, 20]: 10
Plant response rating, Barnyardgrass [15, 21]: 50
Barnyardgrass plant response rating [15, 22]: 90

CCn1nc(C(C)(C)C)cc1C(=O)Nc1cccc(C(=O)NCC(C)C)c1 [Compound 61]
Plant response rating, Corn [1, 21]: 40
Corn plant response rating [1, 22]: 10
Corn plant response rating [1, 26]: 20
Plant response rating, Corn [1, 23]: 0
Plant response rating, Surinam Grass [2, 21]: 30
Surinam Grass plant response rating [2, 26]: 20
Plant response rating, Surinam Grass [2, 23]: 10
Barnyardgrass plant response rating ([3]; visual rating, 13 to 15 days): 30
Rice plant response rating ([4]; visual rating, 13 to 15 days): 0
Plant response rating, Crabgrass, Large [5, 21]: 30
Crabgrass, Large plant response rating [5, 22]: 100
Crabgrass, Large plant response rating [5, 26]: 20
Plant response rating, Crabgrass, Large [5, 23]: 50
Plant response rating, Foxtail, Giant [6, 21]: 30
Foxtail, Giant plant response rating [6, 22]: 80
Foxtail, Giant plant response rating [6, 26]: 20
Plant response rating, Foxtail, Giant [6, 23]: 20
Plant response rating, Lambsquarters [7, 21]: 100
Lambsquarters plant response rating [7, 26]: 90
Plant response rating, Lambsquarters [7, 23]: 100
Ducksalad plant response rating ([8]; visual rating, 13 to 15 days): 80
Plant response rating, Velvetleaf [9, 21]: 70
Velvetleaf plant response rating [9, 26]: 30
Plant response rating, Velvetleaf [9, 23]: 70
Plant response rating, Oat, Wild [10, 24]: 20
Oat, Wild plant response rating [10, 26]: 20
Plant response rating, Pigweed [11, 21]: 60
Pigweed plant response rating [11, 26]: 20
Plant response rating, Pigweed [11, 23]: 80
Plant response rating, Morningglory [12, 21]: 50
Morningglory plant response rating [12, 26]: 20
Plant response rating, Wheat [13, 25]: 10
Wheat plant response rating ([13]; postemergence, 125 g ai/ha; visual rating, scale 0 (no effect) to 100 (complete control)): 10
Plant response rating, Cocklebur [14, 21]: 100
Cocklebur plant response rating [14, 22]: 0
Cocklebur plant response rating [14, 26]: 60
Plant response rating, Cocklebur [14, 23]: 0
Plant response rating, Barnyardgrass [15, 21]: 30
Barnyardgrass plant response rating [15, 22]: 60
Barnyardgrass plant response rating [15, 26]: 20
Plant response rating, Barnyardgrass [15, 23]: 20
